# Measured values taken from PubChem BioAssay (NCI).
#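 Growth conditions: 96-well plates. Treatment: test compound, 48 hours, 5 concentrations. Analysis: linear interpolation between bracketing concentrations; unreached endpoints set to highest concentration. At the GI50, growth is halved. Definition used: TGI = concentration required for complete inhibition of growth.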
# How the values were obtained:
# Test in all cases: inhibition of tumour cell growth, NCI panel, 48 h
# MALME-3M melanoma = system: MALME-3M melanoma
# HL-60(TB) leukemia = system: HL-60(TB) leukemia
# HCT-116 colon = system: HCT-116 colon
# OVCAR-5 ovarian = system: OVCAR-5 ovarian
# SK-MEL-5 melanoma = system: SK-MEL-5 melanoma
# HCC-2998 colon = system: HCC-2998 colon
# NCI-H23 lung = system: NCI-H23 lung
# UACC-257 melanoma = system: UACC-257 melanoma
# UACC-62 melanoma = system: UACC-62 melanoma
# M14 melanoma = system: M14 melanoma
# HS 578T breast = system: HS 578T breast
SMILES,TGI (MALME-3M melanoma),TGI (HL-60(TB) leukemia),TGI (HCT-116 colon),TGI (OVCAR-5 ovarian),TGI (SK-MEL-5 melanoma),TGI (HCC-2998 colon),TGI (NCI-H23 lung),TGI (UACC-257 melanoma),TGI (UACC-62 melanoma),TGI (M14 melanoma),TGI (HS 578T breast),GI50 (MALME-3M melanoma),GI50 (HL-60(TB) leukemia),GI50 (OVCAR-5 ovarian),GI50 (HS 578T breast),GI50 (SK-MEL-5 melanoma),GI50 (HCC-2998 colon),GI50 (NCI-H23 lung),GI50 (UACC-62 melanoma)
O=c1[nH]c(-c2ccc(Cl)cc2)cc2ccsc12,5.8 µM,> 100 µM,> 100 µM,> 100 µM,> 100 µM,9.61 µM,> 100 µM,7.87 µM,> 100 µM,> 100 µM,,,,,,,,,
CCOC(=O)C1=C(C)N(c2ccc(Cl)cc2)C2(O)C=CC(Nc3ccc(Cl)cc3)=C3C(=O)N(c4ccccc4)C(=O)C312 (centres undefined),33.7 µM,23.4 µM,,21.3 µM,11 µM,,20 µM,39.2 µM,7.15 µM,19.7 µM,> 100 µM,,,,,,,,
COc1cccc2c1C(=O)c1c(O)c3c(c(O)c1C2=O)CC(O)(C(C)=O)CC3O (centres undefined),12.7 µM,26.5 µM,10.1 µM,24.1 µM,6.98 µM,11.1 µM,16.4 µM,32.7 µM,14.4 µM,,,,,,,,,,
CN1CCN(Cn2nc(-c3cc(F)c(Cl)cc3Cl)oc2=S)CC1,74.1 µM,> 100 µM,,> 100 µM,33.7 µM,> 100 µM,> 100 µM,,55.2 µM,,86.8 µM,26.4 µM,78.5 µM,> 100 µM,28.5 µM,17.4 µM,55.9 µM,76.5 µM,21.2 µM
